Measured values as given in patent US9636345B2, “Benzimidazole derivatives useful TRPM8 channel modulators” (Janssen Pharmaceutica NV, priority 2009, dated 2017).
Where a name gives a salt, the structure may show the parent alone. Read-outs that look alike come from different tables or passages of the source.

What was measured:
Male Sprague Dawley rats = assay: Inhibition of icilin-induced "wet-dog" shakes in rats; type: in vivo; conditions: rat; 10 mg/kg p.o.; 60 min pre-icilin; vehicle 0.5% HPMC
Method: Male Sprague Dawley rats ([…], Charles River Labs, n=6-9/treatment) were used to evaluate the ability of test compounds to block icilin-induced “wet-dog” shakes (WDS). The test compound was administered at 10 mg/kg in an appropriate vehicle, such as hydroxypropyl-β-cyclodextrin (HP-β-CD), methocellulose, 10% Solutol, H2O or the like, by the appropriate route (e.g., i.p or p.o), 30-60 min before icilin. Icilin was then administered in PEG-400 or 10% solutol/H2O, at 1.0 or 3.0 mg/kg, i.p. and spontaneous “wet-dog” shakes were counted 10-20 min post-icilin.
A representative compound of the present invention was tested at 10 mg/kg p.o. and 60 min pre-icilin, according to the procedure described above. Results, as listed in Table 8 below, are presented as a percent inhibition of shakes, which was calculated as [1−(test compound WDS count/vehicle WDS count)]×100.

canine TRPM8 = biological target: T1, canine TRPM8 (Canis lupus familiaris, UniProt Q1A7N1); assay: In vitro canine TRPM8 functional assay (icilin-induced intracellular Ca2+ increase, FLIPR/FDSS); type: cell-based; conditions: for inhibition at 0.2 µM / % Inh @ 0.2 μM: 0.2 μM compound, HEK293 canine TRPM8; for % Inh @ 1 μM: 1 μM compound, samples diluted from 10 mM stock with 100% DMSO
T1 construct: expressed in transfected cells
Method: The functional activity of representative compounds of the formula (I) of the present invention was quantified by measuring changes in intracellular calcium concentration using a Ca^2+-sensitive fluorescent dye. The changes in fluorescent signal were monitored by a fluorescence plate reader, either a FLIPR™ (Molecular Devices) or FDSS (Hamamatsu).
HEK293 cells stably expressing canine TRPM8 were routinely grown as monolayers in Dulbecco's minimum essential medium supplemented with 10% FBS, 2 mM L-glutamine, 100 units/mL penicillin, 100 ug/mL streptomycin and 400 μg/mL G418. Cells were maintained in 5% CO2 at 37° C. At 24 hr prior to assay, cells were seeded in black wall, clear-base poly-D-lysine coated 384-well plates (BD Biosciences, N.J., USA) at a density of 5,000 cells per well in culture medium and grown overnight in 5% CO2 at 37° C. On assay day, growth media was removed, and cells were loaded with Calcium 3 Dye (Molecular Devices) for 35 min at 37° C., under 5% CO2 and then incubated for 25 min at room temperature and atmosphere. Subsequently, cells were tested for agonist-induced increases in intracellular Ca^2+ levels using FLIPR™ or FDSS. Cells were treated with compounds of the formula (I) at varying concentrations and intracellular Ca^2+ was measured for 5 min prior to the addition of icilin to all wells to achieve a final concentration that produces approximately an 80% maximal response.
Basal FI was subtracted prior to normalizing data to percent of maximal response. Curves were generated using the average of quadruplicate wells for each data point using nonlinear regression of either sigmoidal dose response or sigmoidal dose response (variable slope). Finally, the EC50 and IC50 values were calculated with the best-fit curve determined by GraphPad Prism
Test samples were prepared by diluting a 10 mM stock solution of test compound with 100% DMSO prior to addition to assay buffer.

[1] = HEK293 cells stably expressing canine TRPM8, icilin at ~80% maximal response, Table 6, read-out: IC50

T1 sequence (Q1A7N1 1-1104): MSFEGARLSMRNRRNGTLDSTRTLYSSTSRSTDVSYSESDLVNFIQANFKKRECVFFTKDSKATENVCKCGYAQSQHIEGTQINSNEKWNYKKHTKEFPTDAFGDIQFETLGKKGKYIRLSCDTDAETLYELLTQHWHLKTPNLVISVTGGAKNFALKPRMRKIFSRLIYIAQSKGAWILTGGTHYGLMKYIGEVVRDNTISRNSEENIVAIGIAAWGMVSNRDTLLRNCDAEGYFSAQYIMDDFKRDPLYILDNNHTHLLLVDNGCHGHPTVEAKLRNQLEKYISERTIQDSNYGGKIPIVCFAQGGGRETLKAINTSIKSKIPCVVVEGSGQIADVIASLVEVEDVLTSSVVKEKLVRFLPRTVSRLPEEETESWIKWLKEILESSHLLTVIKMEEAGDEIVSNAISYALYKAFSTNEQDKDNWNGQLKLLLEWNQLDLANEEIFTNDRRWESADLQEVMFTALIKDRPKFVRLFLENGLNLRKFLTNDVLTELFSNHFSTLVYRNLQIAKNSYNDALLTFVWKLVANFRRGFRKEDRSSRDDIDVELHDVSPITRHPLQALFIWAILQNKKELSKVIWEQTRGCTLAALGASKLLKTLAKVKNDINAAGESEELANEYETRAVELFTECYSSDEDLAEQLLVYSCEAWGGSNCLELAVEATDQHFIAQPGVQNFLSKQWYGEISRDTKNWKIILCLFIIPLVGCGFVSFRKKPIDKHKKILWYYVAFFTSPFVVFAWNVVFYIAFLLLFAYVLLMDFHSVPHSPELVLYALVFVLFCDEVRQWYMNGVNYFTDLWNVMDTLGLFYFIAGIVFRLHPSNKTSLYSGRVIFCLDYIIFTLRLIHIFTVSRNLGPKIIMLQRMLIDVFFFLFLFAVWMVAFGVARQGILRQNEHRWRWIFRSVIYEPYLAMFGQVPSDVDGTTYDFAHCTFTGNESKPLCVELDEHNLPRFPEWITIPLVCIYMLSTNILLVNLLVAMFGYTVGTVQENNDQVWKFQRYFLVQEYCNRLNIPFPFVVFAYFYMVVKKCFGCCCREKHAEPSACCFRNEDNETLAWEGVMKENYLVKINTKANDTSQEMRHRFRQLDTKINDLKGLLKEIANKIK

Compound | % Inh @ 0.2 μM (canine TRPM8; Table 6) [%] | other results
CCn1c(=NS(=O)(=O)c2ccccc2)n(Cc2ccc(C(F)(F)F)c(F)c2)c2cc(C(F)(F)F)ccc21 [Compound 37] |  | % Inhibition of icilin-induced "wet-dog" shakes (Male Sprague Dawley rats): 0.6%; IC50 (canine TRPM8): 0.005 µM; inhibition at 0.2 µM (canine TRPM8; Table 6): 93%
O=S(=O)(N=c1n(Cc2ccc(OC(F)(F)F)cc2)c2ccccc2n1CC1CC1)c1ccccc1 [Compound 48] | 67 | 
O=S(=O)(N=c1n(Cc2ccc(C(F)(F)F)cc2)c2ccccc2n1CC1CC1)c1ccccc1 [Compound 49] |  | inhibition at 0.2 µM (canine TRPM8; Table 6): 71%; IC50 (canine TRPM8; [1]): 0.11 µM
O=S(=O)(/N=c1\n(Cc2ccc(C(F)(F)F)c(F)c2)c2ccccc2n1CC1CC1)c1ccccc1 [Compound 50, N-[1-Cyclopropylmethyl-3-(3-fluoro-4-trifluoromethyl-benzyl)-1,3-dihydro-benzimidazol-2-ylidene]-benzenesulfonamide] |  | inhibition at 0.2 µM (canine TRPM8; Table 6): 94%; IC50 (canine TRPM8; [1]): 0.086 µM
O=S(=O)(N=c1n(Cc2ccc(C(F)(F)F)c(F)c2)c2cccc3c2n1CCC3)c1ccccc1 [Compound 51] | 14 | 
O=S(=O)(N=c1n(Cc2ccc(OC(F)(F)F)cc2)c2cccc3c2n1CCC3)c1ccccc1 [Compound 52] | 18 | 
O=S(=O)(N=c1n(Cc2ccc(C(F)(F)F)cc2)c2cccc3c2n1CCC3)c1ccccc1 [Compound 53] | 16 | 
Cc1ccc2c(c1)n(C)c(=NS(=O)(=O)c1ccccc1)n2Cc1ccc(OC(F)(F)F)cc1 [Compound 54] | 6 | % Inh @ 1 μM (canine TRPM8; re-test, Table 7): 55%; IC50 (canine TRPM8; re-test, samples diluted from 10 mM stock with 100% DMSO before addition to assay buffer, Table 7, read-out: IC50): 0.645 µM
Cc1ccc2c(c1)n(C)/c(=N/S(=O)(=O)c1ccccc1)n2Cc1ccc(C(F)(F)F)c(F)c1 [Compound 55, N-[1-(3-Fluoro-4-trifluoromethyl-benzyl)-3,5-dimethyl-1,3-dihydro-benzimidazol-2-ylidene]-benzene sulfonamide] |  | inhibition at 0.2 µM (canine TRPM8; Table 6): 18%
Cc1ccc2c(c1)n(C)c(=NS(=O)(=O)c1ccccc1)n2Cc1ccc(C(F)(F)F)cc1 [Compound 56] | 1 | % Inh @ 1 μM (canine TRPM8; re-test, Table 7): 40%
Cn1c(=NS(=O)(=O)c2ccccc2)n(Cc2ccc(C(F)(F)F)c(F)c2)c2ccc(C(F)(F)F)cc21 [Compound 57] | 45 | 
Cn1c(=NS(=O)(=O)c2ccccc2)n(Cc2ccc(OC(F)(F)F)cc2)c2ccc(C(F)(F)F)cc21 [Compound 58] | 25 | 
Cn1c(=NS(=O)(=O)c2ccccc2)n(Cc2ccc(C(F)(F)F)cc2)c2ccc(C(F)(F)F)cc21 [Compound 59] | 20 | 
Cc1cc2c(cc1C)n(Cc1ccc(OC(F)(F)F)cc1)c(=NS(=O)(=O)c1ccccc1)n2C [Compound 60] | 5 | % Inh @ 1 μM (canine TRPM8; re-test, Table 7): 48%
Cc1cc2c(cc1C)n(Cc1ccc(C(F)(F)F)c(F)c1)c(=NS(=O)(=O)c1ccccc1)n2C [Compound 61] | 14 | 
Cc1cccc2c1n(Cc1ccc(C(F)(F)F)c(F)c1)c(=NS(=O)(=O)c1ccccc1)n2C [Compound 62] | 19 | 
O=S(=O)(/N=c1\n(Cc2ccc(C(F)(F)F)cc2)c2cccc3c2n1CCO3)c1ccccc1 [Compound 63, N-[1-(4-Trifluoromethyl-benzyl)-3,4-dihydro-1H-5-oxa-1,2a-diaza-acenaphthylen-2-ylidene]-benzenesulfonamide TFA salt] |  | inhibition at 0.2 µM (canine TRPM8; Table 6): 34%
O=S(=O)(N=c1n2c3c(cccc3n1-c1ccc(OC(F)(F)F)cc1)OCC2)c1ccccc1 [Compound 64] | 61 | 
